Results on 15 molecules are retold here after patent US20240239792A1, “MODULATORS OF BCL-2 OR BCL-2/BCL-XL AND USES THEREOF” (APPICINE THERAPEUTICS (HK) LIMITED, priority 2021, published 2024).

The target of assay [1] is T1, BCL-2 (Homo sapiens, UniProt P10415).
T1 construct: purchased Cisbio 63ADK000CB01PEG
Description: HTRF BCL-2/BAK assay (Cisbio). As to conditions: recombinant human Tag1-BCL-2 2 nM, Tag2-BAK 10 nM. It counts as binding. Here is the method:
(§1) Then the pre-mixed anti-Tag1-Eu^3+ and anti-tag2-XL665 were added to the plate and further incubated at room temperature for another 2 hours. The signals ([…]) were read on Envision 2104 instrument. The IC50 for each compound was derived from fitting the signal of 665/615 nM to the increasing compound concentration.
(§2) Using the above assays, the following compounds were tested.
Background: Time-resolved FRET reads energy transfer from a long-lived donor to a nearby acceptor.

The target in assay [2] is T2, BCL-XL (Homo sapiens, UniProt Q07817).
T2 construct: purchased Cisbio 63ADK000CB04PEG
T2 sequence (Q07817 whole entry): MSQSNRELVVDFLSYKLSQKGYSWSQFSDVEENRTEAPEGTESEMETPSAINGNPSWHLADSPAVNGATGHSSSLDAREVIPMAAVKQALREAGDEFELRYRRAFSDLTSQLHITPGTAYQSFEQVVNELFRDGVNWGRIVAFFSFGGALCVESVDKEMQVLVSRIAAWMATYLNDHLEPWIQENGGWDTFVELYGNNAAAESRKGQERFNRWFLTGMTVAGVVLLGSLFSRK
Briefly: HTRF BCL-XL/BAK assay (Cisbio). It counts as binding. As to conditions: recombinant human Tag1-BCL-XL 2 nM, Tag2-BAK 5 nM. Here is the method:
as §1, §2

For assay [3], the system named is DOHH2 cells. Description: CellTiter-Glo cell proliferation assay, DOHH2 cells. The format is cell-based. As to conditions: Homo sapiens, DOHH-2, 72 hours. Here is the method: The CellTiter-Glo® Luminescent Cell Viability Assay (Promega, G7573) was used to study the cellular potency of disclosed compounds herein. The cells were harvested during the logarithmic growth period and counted with hemocytometer. The DOHH2 cells were seeded at 1.6*10^4 in 90 ul DMEM medium supplemented with 10% fetal bovine serum (FBS) (as RS4;11 cells were seeded at 4000 in 90 ul RPMI-1640 medium with 10% FBS) per well in 96-well plates and treated with 10 ul of a serial dilution of compounds disclosed herein (maximum concentration and dilution ratio determined by the results of pre-experiment may vary) for 72 hours in a 5% CO2 incubator at 37° C. Cell viability was assessed according to the manufacturer's recommendations. After the plates return to the room temperature, 100 ul of CellTiter-Glo® reagent was added to 100 ul of cell culture. The mixture was agitated on an orbital shaker for 2 minutes or placed it at room temperature for 10 minutes to allow cell lysis and stabilization of luminescent signals. Luminescent signals were recorded using Envision 2104 instrument. And GI50 values were then calculated.

Some results are limits rather than exact numbers.

T1 sequence (P10415 whole entry): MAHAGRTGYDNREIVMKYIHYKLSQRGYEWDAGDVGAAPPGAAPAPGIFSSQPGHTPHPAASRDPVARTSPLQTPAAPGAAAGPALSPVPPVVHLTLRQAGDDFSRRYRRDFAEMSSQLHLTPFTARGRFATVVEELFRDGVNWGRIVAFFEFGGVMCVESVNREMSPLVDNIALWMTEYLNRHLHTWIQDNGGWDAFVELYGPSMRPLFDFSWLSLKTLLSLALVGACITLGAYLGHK

By IC50 is commonly meant the point on the concentration scale where inhibition reaches its midpoint. The GI50 is the concentration that inhibits growth by half. Higher therefore signals lower sensitivity of the cells. On to `O=C(NS(=O)(=O)c1ccc(NCC2CCOCC2)c([N+](=O)[O-])c1)c1ccc(N2CCN(C3CCCCc4c(-c5ccccc5)cccc43)CC2)cc1Oc1cnc2[nH]ccc2c1` (stereo not shown) [Compound 19, 2-((1H-pyrrolo[2,3-b]pyridin-5-yl)oxy)-N-((3-nitro-4-(((tetrahydro-2H-pyran-4-yl)methyl)amino)phenyl)sulfonyl)-4-(4-(1-phenyl-6,7,8,9-tetrahydro-5H-benzo[7]annulen-5-yl)piperazin-1-yl)benzamide], for which the IC50 in assay [1] was less than 20 nM; in assay [2], more than 2000 nM. The 50% growth inhibitory concentration (GI50) in assay [3] lay in the range of 500 to 5000 nM.
For the molecule `O=C(NS(=O)(=O)c1ccc(NCC2CCOCC2)c([N+](=O)[O-])c1)c1ccc(N2CCN(C3CCCCc4c(-c5cn[nH]c5)cccc43)CC2)cc1Oc1cnc2[nH]ccc2c1` (stereo not shown) [Compound 52, 4-(4-(1-(1H-pyrazol-4-yl)-6,7,8,9-tetrahydro-5H-benzo[7]annulen-5-yl)piperazin-1-yl)-2-((1H-pyrrolo[2,3-b]pyridin-5-yl)oxy)-N-((3-nitro-4-(((tetrahydro-2H-pyran-4-yl)methyl)amino)phenyl)sulfonyl)benzamide], the IC50 is 20 to 200 nM in assay [1] and more than 2000 nM in assay [2]. In addition, the GI50 in assay [3] is more than 5000 nM.
With `O=C(NS(=O)(=O)c1ccc(NCC2CCOCC2)c([N+](=O)[O-])c1)c1ccc(N2CCN(C3CCCc4cccc(-c5ccc(Cl)cc5)c43)CC2)cc1Oc1cnc2[nH]ccc2c1` (stereo not shown) [Compound 16, 2-((1H-pyrrolo[2,3-b]pyridin-5-yl)oxy)-4-(4-(8-(4-chlorophenyl)-1,2,3,4-tetrahydronaphthalen-1-yl)piperazin-1-yl)-N-((3-nitro-4-(((tetrahydro-2H-pyran-4-yl)methyl)amino)phenyl)sulfonyl)benzamide], the IC50 in assay [1] was less than 20 nM; in assay [2] it was 200 to 2000 nM. This molecule also had a GI50 in assay [3] of 500 to 5000 nM.
The like results for `O=C(O)CN1CCC2(CC1)CC(CNc1ccc(S(=O)(=O)NC(=O)c3ccc(N4CCN([C@@H]5CCCCc6c(Cl)cccc65)CC4)cc3Oc3cnc4[nH]ccc4c3)cc1[N+](=O)[O-])C2` [Compound 123, (R)-2-(2-(((4-(N-(2-((1H-pyrrolo[2,3-b]pyridin-5-yl)oxy)-4-(4-(1-chloro-6,7,8,9-tetrahydro-5H-benzo[7]annulen-5-yl)piperazin-1-yl)benzoyl)sulfamoyl)-2-nitrophenyl)amino)methyl)-7-azaspiro[3.5]nonan-7-yl)acetic acid] were, in that order, less than 20 nM, less than 20 nM and 50 to 500 nM.
In the case of `CN1CCc2ccccc2C(N2CCN(c3ccc(C(=O)NS(=O)(=O)c4ccc(NCC5CCOCC5)c([N+](=O)[O-])c4)c(Oc4cnc5[nH]ccc5c4)c3)CC2)C1=O` (stereo not shown) [Compound 45, 2-((1H-pyrrolo[2,3-b]pyridin-5-yl)oxy)-4-(4-(3-methyl-2-oxo-2,3,4,5-tetrahydro-1H-benzo[d]azepin-1-yl)piperazin-1-yl)-N-((3-nitro-4-(((tetrahydro-2H-pyran-4-yl)methyl)amino)phenyl)sulfonyl)benzamide], the results for the IC50 in assay [1] and in assay [2] were less than 20 nM and 200 to 2000 nM, respectively. Besides, in assay [3], the GI50 fell in the range of 500 to 5000 nM.
On to `CC(C)c1cccc2c1CCCCC2N1CCN(c2ccc(C(=O)NS(=O)(=O)c3ccc(NCC4CCOCC4)c([N+](=O)[O-])c3)c(Oc3cnc4[nH]ccc4c3)c2)CC1` (stereo not shown) [Compound 51, 2-((1H-pyrrolo[2,3-b]pyridin-5-yl)oxy)-4-(4-(1-isopropyl-6,7,8,9-tetrahydro-5H-benzo[7]annulen-5-yl)piperazin-1-yl)-N-((3-nitro-4-(((tetrahydro-2H-pyran-4-yl)methyl)amino)phenyl)sulfonyl)benzamide], for which the IC50 was less than 20 nM in assay [1] and 200 to 2000 nM in assay [2]. The molecule further displayed a 50% growth inhibitory concentration (GI50) in assay [3] of 500 to 5000 nM.
The like results for `O=C(NS(=O)(=O)c1ccc(NCC2CCOCC2)c([N+](=O)[O-])c1)c1ccc(N2CCN(C3COCc4ccccc43)CC2)cc1Oc1cnc2[nH]ccc2c1` (stereo not shown) [Compound 12, 2-((1H-pyrrolo[2,3-b]pyridin-5-yl)oxy)-4-(4-(isochroman-4-yl)piperazin-1-yl)-N-((3-nitro-4-(((tetrahydro-2H-pyran-4-yl)methyl)amino)phenyl)sulfonyl)benzamide] were, in that order, 20 to 200 nM, more than 2000 nM and 500 to 5000 nM.
In the same order, the values of `O=C(NS(=O)(=O)c1ccc(NCCN2CCC3(CC2)COC3)c([N+](=O)[O-])c1)c1ccc(N2CCN([C@@H]3CCCCc4c(Br)cc(F)cc43)CC2)cc1Oc1cnc2[nH]ccc2c1` [Compound 80, (R)-2-((1H-pyrrolo[2,3-b]pyridin-5-yl)oxy)-N-((4-((2-(2-oxa-7-azaspiro[3.5]nonan-7-yl)ethyl)amino)-3-nitrophenyl)sulfonyl)-4-(4-(1-bromo-3-fluoro-6,7,8,9-tetrahydro-5H-benzo[7]annulen-5-yl)piperazin-1-yl)benzamide] are less than 20 nM, 20 to 200 nM and 500 to 5000 nM.
The like results for `CC(=O)Nc1ccc2c(c1)C(N1CCN(c3ccc(C(=O)NS(=O)(=O)c4ccc(NCC5CCOCC5)c([N+](=O)[O-])c4)c(Oc4cnc5[nH]ccc5c4)c3)CC1)CCCC2` (stereo not shown) [Compound 34, 2-((1H-pyrrolo[2,3-b]pyridin-5-yl)oxy)-4-(4-(3-acetamido-6,7,8,9-tetrahydro-5H-benzo[7]annulen-5-yl)piperazin-1-yl)-N-((3-nitro-4-(((tetrahydro-2H-pyran-4-yl)methyl)amino)phenyl)sulfonyl)benzamide] were, in that order, less than 20 nM, 200 to 2000 nM and 500 to 5000 nM.
With `O=C(NS(=O)(=O)c1ccc(NCC2CC3(COC3)C2)c([N+](=O)[O-])c1)c1ccc(N2CCN([C@@H]3CCCCc4c3cccc4[N+](=O)[O-])CC2)cc1Oc1cnc2[nH]ccc2c1` [Compound 75, (R)-2-((1H-pyrrolo[2,3-b]pyridin-5-yl)oxy)-N-((4-(((2-oxaspiro[3.3]heptan-6-yl)methyl)amino)-3-nitrophenyl)sulfonyl)-4-(4-(1-nitro-6,7,8,9-tetrahydro-5H-benzo[7]annulen-5-yl)piperazin-1-yl)benzamide], the IC50 in assay [1] was less than 20 nM; in assay [2], 20 to 200 nM. The same molecule gave a GI50 in assay [3] of less than 50 nM.
Regarding `CC(C)(C)OC(=O)N1CCC2(CC1)CC(CNc1ccc(S(=O)(=O)NC(=O)c3ccc(N4CCN([C@@H]5CCCCc6c(Cl)cccc65)CC4)cc3)cc1[N+](=O)[O-])C2` [Compound 116, tert-butyl (R)-2-(((4-(N-(4-(4-(1-chloro-6,7,8,9-tetrahydro-5H-benzo[7]annulen-5-yl)piperazin-1-yl)benzoyl)sulfamoyl)-2-nitrophenyl)amino)methyl)-7-azaspiro[3.5]nonane-7-carboxylate], the IC50 in assay [1] and in assay [2] was more than 2000 nM throughout.
For the molecule `O=C(NS(=O)(=O)c1ccc(NCC2CC3(CCC(F)(F)CC3)C2)c([N+](=O)[O-])c1)c1ccc(N2CCN([C@@H]3CCCCc4c(Cl)cccc43)CC2)cc1Oc1cnc2[nH]ccc2c1` [Compound 135, (R)-2-((1H-pyrrolo[2,3-b]pyridin-5-yl)oxy)-4-(4-(1-chloro-6,7,8,9-tetrahydro-5H-benzo[7]annulen-5-yl)piperazin-1-yl)-N-((4-(((7,7-difluorospiro[3.5]nonan-2-y1)methyl)amino)-3-nitrophenyl)sulfonyl)benzamide], the IC50 in assay [1] is less than 20 nM. In assay [3], this molecule registered a 50% growth inhibitory concentration (GI50) of less than 50 nM.
As for `CC(=O)N1CCC2(CC1)CC(CNc1ccc(S(=O)(=O)NC(=O)c3ccc(N4CCN([C@@H]5CCCCc6c(Cl)cccc65)CC4)cc3)cc1[N+](=O)[O-])C2` [Compound 118, (R)-N-((4-(((7-acetyl-7-azaspiro[3.5]nonan-2-yl)methyl)amino)-3-nitrophenyl)sulfonyl)-4-(4-(1-chloro-6,7,8,9-tetrahydro-5H-benzo[7]annulen-5-yl)piperazin-1-yl)benzamide], the IC50 in assay [1] is 200 to 2000 nM; in assay [2], more than 2000 nM.
As for `O=C(NS(=O)(=O)c1ccc(NCC2CCOCC2)c([N+](=O)[O-])c1)c1ccc(N2CCN(C3CCCCc4ccc(-c5ccccc5)cc43)CC2)cc1Oc1cnc2[nH]ccc2c1` (stereo not shown) [Compound 22, 2-((1H-pyrrolo[2,3-b]pyridin-5-yl)oxy)-N-((3-nitro-4-(((tetrahydro-2H-pyran-4-yl)methyl)amino)phenyl)sulfonyl)-4-(4-(3-phenyl-6,7,8,9-tetrahydro-5H-benzo[7]annulen-5-yl)piperazin-1-yl)benzamide], the IC50 in assay [1] is 20 to 200 nM. The GI50 in assay [3] was in the range of 500 to 5000 nM.
On to `O=C(NS(=O)(=O)c1ccc(NCC2CCOCC2)c([N+](=O)[O-])c1)c1ccc(N2CC3(CCN(C4CCCc5ccccc54)C3)C2)cc1Oc1cnc2[nH]ccc2c1` (stereo not shown) [Compound 91, 2-((1H-pyrrolo[2,3-b]pyridin-5-yl)oxy)-N-((3-nitro-4-(((tetrahydro-2H-pyran-4-yl)methyl)amino)phenyl)sulfonyl)-4-(6-(1,2,3,4-tetrahydronaphthalen-1-yl)-2,6-diazaspiro[3.4]octan-2-yl)benzamide], for which, in assay [1], the IC50 was less than 20 nM. The same molecule showed a GI50 in assay [3] of 500 to 5000 nM.
